Results published in US10858360B2, “Tricyclic gyrase inhibitors” (priority 2011, dated 2020).
Converted amounts (≈) assume the structure as drawn. Where two headings read alike, the source gives them in different places.

Experiments:
S. aureus ATCC 13709 = assay: MIC, S. aureus ATCC 13709 (Alamar Blue broth microdilution); assay type: cell-based; settings: for MIC: Staphylococcus aureus, ATCC13709, S. aureus
E. coli ATCC 25922 = assay: MIC, E. coli ATCC 25922; assay type: cell-based; settings: for MIC: Escherichia coli, ATCC25922, E. coli
[1] = S. aureus, Alamar Blue read after overnight incubation at 35° C.
[2] = E. coli, Alamar Blue read after overnight incubation at 35° C.
[3] = Alamar Blue read after overnight incubation at 35° C.

| SMILES | MIC (S. aureus ATCC 13709; [3]) [µg/mL] | MIC (E. coli ATCC 25922; [3]) [µg/mL] | also measured |
| --- | --- | --- | --- |
| CNc1cc(F)cc2c1[nH]c1nc(Oc3cncc(Br)c3)nc(N3CC4CC(N)C4C3)c12 (stereo not shown) [4.283] |  |  | MIC Sa (S. aureus ATCC 13709; [1]): ≤0.5 µg/mL; MIC Ec (E. coli ATCC 25922; [2]): ≤0.5 µg/mL |
| CNc1cc(F)cc2c1[nH]c1nc(Oc3cnc(NC4CC4)nc3)nc(N3CCC(N)C3)c12 (stereo not shown) [4.222] |  |  | MIC Sa (S. aureus ATCC 13709; [1]): ≤0.5 µg/mL; MIC Ec (E. coli ATCC 25922; [2]): ≤0.5 µg/mL |
| CCCc1ncc(Oc2nc(N3C[C@H](N)C4(CC4)C3)c3c(n2)[nH]c2c(NC)cc(F)cc23)cn1 [4.304] | ≤ 0.5 | ≤ 0.5 |  |
| CNc1cc(F)cc2c1[nH]c1nc(Oc3cnc(N4CCOCC4)nc3)nc(N3CCC(N)C3)c12 (stereo not shown) [4.212] |  |  | MIC Sa (S. aureus ATCC 13709; [1]): ≤0.5 µg/mL; MIC Ec (E. coli ATCC 25922; [2]): ≤0.5 µg/mL |
| CNc1cc(F)cc2c1[nH]c1nc(Sc3cnc4cccnc4c3)nc(N3CC(N)C4(CC4)C3)c12 (stereo not shown) [1.62] | ≤ 0.5 | ≤ 0.5 |  |
| CNc1cc(F)cc2c1[nH]c1nc(Oc3cnc(C)nc3)nc(N(C)C3CNC3)c12 [4.134] |  |  | MIC Sa (S. aureus ATCC 13709; [1]): >16 µg/mL; MIC Ec (E. coli ATCC 25922; [2]): >16 µg/mL |
| CNc1cccc2c1[nH]c1nc(Sc3cnc4cccnc4c3)nc(N3CCC[C@@H](N)C3)c12 [1.37] | 1 (≈ 2.19 µM) | 4 (≈ 8.76 µM) |  |
| CNc1cc(F)cc2c1[nH]c1nc(Oc3ccc(C#N)nc3)nc(N3CC4(CCC4N)C3)c12 (stereo not shown) [4.333] |  |  | MIC Sa (S. aureus ATCC 13709; [1]): ≤0.5 µg/mL; MIC Ec (E. coli ATCC 25922; [2]): ≤0.5 µg/mL |
| CNc1cccc2c1[nH]c1nc(Oc3cncnc3)nc(N3CC4(CCNC4)C3)c12 [3.67] | 16 (≈ 39.8 µM) | 64 (≈ 159 µM) |  |
| CNc1c(F)ccc2c1[nH]c1nc(Oc3cnc4cccnc4c3)nc(N3CC(N)C4(CC4)C3)c12 (stereo not shown) [6.03] |  |  | MIC Sa (S. aureus ATCC 13709): ≤0.5 µg/mL; MIC Ec (E. coli ATCC 25922): ≤0.5 µg/mL |
| CNc1cccc2c1[nH]c1nc(Sc3cnc4cccnc4c3)nc(N3CCNCC3)c12 [1.46] | 2 (≈ 4.52 µM) | 4 (≈ 9.04 µM) |  |
| CNc1cc(F)cc2c1[nH]c1nc(Oc3cnc4cccnc4c3)nc(N3CC[C@]4(C[C@@H]4N)C3)c12 [4.040] | ≤ 0.5 | ≤ 0.5 |  |
| CNc1cc(F)cc2c1[nH]c1nc(Oc3cnc(CC(=O)OC)nc3)nc(N3C[C@H](N)C4(CC4)C3)c12 [4.368] | ≤ 0.5 | ≤ 0.5 |  |
| CNc1cc(F)cc2c1[nH]c1nc(Oc3cnc(CC(=O)N4CC(N(C)C)C4)nc3)nc(N3C[C@H](N)C4(CC4)C3)c12 [4.373] | 2 (≈ 3.57 µM) | 8 (≈ 14.3 µM) |  |
| CNc1cccc2c1[nH]c1nc(Sc3cncnc3)nc(N3CC4C(N)C4C3)c12 (stereo not shown) [1.43] | 2 (≈ 4.94 µM) | 8 (≈ 19.8 µM) |  |
| CNc1cc(F)cc2c1[nH]c1nc(Oc3cncnc3)nc(N3CC4C[C@@H](N)C4C3)c12 (stereo partly shown) [4.028] | ≤ 0.5 | ≤ 0.5 |  |

| SMILES | MIC (S. aureus ATCC 13709; [3]) [µg/mL] | MIC (E. coli ATCC 25922; [3]) [µg/mL] | also measured |
| --- | --- | --- | --- |
| CNc1cc(F)cc2c1[nH]c1nc(Oc3cnc(C4CC4)nc3)nc(N3CC4CCC3C4N)c12 (stereo not shown) [4.256] | ≤ 0.5 | ≤ 0.5 |  |
| CNc1cccc2c1[nH]c1nc(Sc3cnc4cccnc4c3)nc(N3CCC4(CC4N)C3)c12 (stereo not shown) [1.26] |  |  | MIC Sa (S. aureus ATCC 13709; [1]): ≤0.5 µg/mL; MIC Ec (E. coli ATCC 25922; [2]): 1 µg/mL (≈ 2.13 µM) |
| CNc1ncnc2c1[nH]c1nc(Oc3cnc(C)nc3)nc(N3CC4C(N)C4C3)c12 (stereo not shown) [7.05] | 8 (≈ 19.8 µM) | 64 (≈ 158 µM) |  |
| CNc1cccc2c1[nH]c1nc(Sc3cnc4cccnc4c3)nc(N3CC(N)C3)c12 [1.29] | 1 (≈ 2.33 µM) | > 64 |  |
| COc1cccc2c1[nH]c1nc(Oc3cccc(C#N)c3)nc(N3CC4C(N)C4C3)c12 (stereo not shown) [2.12] |  |  | MIC Sa (S. aureus ATCC 13709; [1]): 16 µg/mL (≈ 38.8 µM); MIC Ec (E. coli ATCC 25922; [2]): >64 µg/mL |
| CNc1cc(F)cc2c1[nH]c1nc(Oc3cnc(CO)nc3)nc(N3CC4CC3C[C@@H]4N)c12 (stereo partly shown) [4.390] | ≤ 0.5 | ≤ 0.5 |  |
| CNc1cc(F)cc2c1[nH]c1nc(Oc3ccc4c(c3)C(=O)NCC4)nc(N3CC4C[C@@H](N)C4C3)c12 (stereo partly shown) [4.302] | ≤ 0.5 | 2 (≈ 4.1 µM) |  |
| CNc1cc(F)cc2c1[nH]c1nc(Oc3cncc(Cl)c3)nc(N3CC4C[C@@H](N)C4C3)c12 (stereo partly shown) [4.274] | ≤ 0.5 | ≤ 0.5 |  |
| CCc1cc(F)cc2c1[nH]c1nc(Oc3cnc(C)nc3)nc(N3CC4CC(N)C4C3)c12 (stereo not shown) [2.4] | ≤ 0.5 | 1 (≈ 2.31 µM) |  |
| CNc1cccc2c1[nH]c1nc(Oc3cnc4cccnc4c3)nc(N3CC4C(N)C4C3)c12 (stereo not shown) [3.34] | ≤ 0.5 | ≤ 0.5 |  |
| CNc1cc(F)cc2c1[nH]c1nc(Oc3cnc(C)nc3)nc(N3CC4CC(N)C3C4)c12 (stereo not shown) [4.148] | ≤ 0.5 | 4 (≈ 9.21 µM) |  |
| CCc1ncc(Oc2nc(N3CC4C[C@@H](N)C4C3)c3c(n2)[nH]c2c(NC)cc(F)cc23)cn1 (stereo partly shown) [4.264] | ≤ 0.5 | ≤ 0.5 |  |
| CNc1cc(F)cc2c1[nH]c1nc(Oc3ccc4c(c3)C(=O)NC4)nc(N3C[C@H](N)C4(CC4)C3)c12 [4.265] | ≤ 0.5 | 4 (≈ 8.45 µM) |  |
| CNc1cc(Cl)cc2c1[nH]c1nc(Oc3cnc(N)nc3)nc(N3CC4CC(N)C4C3)c12 (stereo not shown) [6.16] |  |  | MIC Sa (S. aureus ATCC 13709): ≤0.5 µg/mL; MIC Ec (E. coli ATCC 25922): 1 µg/mL (≈ 2.21 µM) |
| CNc1cccc2c1[nH]c1nc(Oc3cncc(C#N)c3)nc(N3CC4C(N)C4C3)c12 (stereo not shown) [3.27] | 1 (≈ 2.42 µM) | 4 (≈ 9.7 µM) |  |
| CNc1cccc2c1[nH]c1nc(Oc3cncnc3)nc(N3CC4CC4(N)C3)c12 (stereo not shown) [3.1] | 1 (≈ 2.57 µM) | 4 (≈ 10.3 µM) |  |
